For experiment [1], the system named is C57/B16 mice with MK-801 injection. The experiment can be described thus: Prepulse inhibition in MK-801 mouse model of schizophrenia. The experiment is classed as in vivo. The note with it: mice given MK-801 0.2 mg/kg i.p., 40 mg/kg RS-D7. An excerpt:
(§1) Taking advantage of wild-type (WT, healthy) mouse and pharmacologic animal models of schizophrenia, such as MK-801 and methamphetamine mouse model of schizophrenia, as the well-established animal models of schizophrenia, we investigate the therapeutic potential of RS-D7, a DAO inhibitor, on the alleviation of schizophrenia-related negative and cognitive deficits. A serial of behavioral tasks has been selected and conducted for mimicking the cognitive (e.g., prepulse inhibition) and negative symptoms (e.g., sucrose preference test and hot plate test) of schizophrenia in healthy control mice or pharmacological mouse model of schizophrenia (Lai, W. S et al., Current Pharmaceutical Design, 2014, 20(32), 5139-50). The pharmacological animal model of schizophrenia is due in part to similarities in clinical presentation and response to treatment. These behavioral tasks have been evaluated with varying degrees of test validities for assessing schizophrenia-relevant behavioral deficits in mice. Different batches of male adult C57/B16 mice were used and the details of different behavioral tasks were described elsewhere.
(§2) MK-801 is a non-competitive NMDA receptor antagonist. An injection and chronic injections of MK-801 provide a potential animal model to mimic both the negative and cognitive symptoms of schizophrenia. […]

The test system is the same in experiment [2]. In words: Sucrose preference test in MK-801 mouse model of schizophrenia. The experiment is classed as in vivo. The note with it: mice given MK-801 0.2 mg/kg i.p., 20 mg/kg RS-D7.
Text: as §1, §2

For experiment [3], the system named is WT mice. In words: Prepulse inhibition (PPI) in WT mouse model. It counts as in vivo. To be noted: 20 mg/kg i.p., 78 dB prepulse, vs saline controls, listed as RS-D7.
Text: as §1
To assess schizophrenia-like cognitive function in mice, prepulse inhibition (PPI) was used to evaluate sensorimotor gating functions in mice after RS-D7 injection. […]

The next experiment concerns the target porcine kidney DAAO (Sus scrofa (Pig), UniProt P00371). The experiment can be described thus: DAAO enzymatic assay. It counts as biochemical. As to the method:
The DAAO activity was measured by using substrate D-alanine reaction produced hydrogen peroxide (H2O2) to further react with 3-(4-hydroxyphenyl) propionic acid (HPPA). The HPPA were oxidized by H2O2 and peroxidase to become the fluorogenic dimer which was measured to represent the activity of DAAO. The substrate of DAAO was prepared in 50 mM D-alanine (dissolved in 0.2 M Tris-HCl buffer, pH 8.3). […] A 10 ul of D-alanine and drug mixture was incubated with 220 ul of Reaction Master Mix in black 96 well plate at 37° C. for 5 min. The Reaction Master Mix contained 110 ul of 5 U/mL porcine kidney DAAO (Sigma-Aldrich, USA) solution (dissolved with 0.2 M Tris-HCl buffer, pH 8.3), 1.1 mL of 15 U/mL peroxidase solution (dissolved with 0.2 M Tris-HCl buffer, pH 8.3), 1.1 mL of 20 mM HPPA solution (dissolved with 0.2 M Tris-HCl buffer, pH 8.3), and 2.2 ml of 2 M Tris-HCl buffer (pH 8.3) for 110 reaction assays.
The higher is the DAAO enzymatic activity, the higher is the fluorescence intensity. The fluorometric inhibition indicator (Fi) was obtained from the following equation: Fi=(Fs−FDrug)/(FDMSO). Where the fluorescent drug blank (FDrug) were measured in the drug mixture solution (using 0.2 M Tris HCl buffer, pH 8.3, without D-alanine). A DMSO blank (FDMSO) was measured under a 100% DMSO solution. Although, in the assay for D-amino acid oxidase, FAD was generally included in the reaction mixture because this co-factor is easily dissociated from the holoenzyme, the present method was performed without FAD. […] The IC50 value was calculated by GraphPad Prism, version 5 software (GraphPad Software, Inc., La Jolla, Calif.) (GraphPad Prism 5, GraphPad software Inc: California, USA) through nonlinear regression model.

Experiment [4] deals with ICR mice with methamphetamine injection. In words: Prepulse inhibition in methamphetamine mouse model of schizophrenia. It counts as in vivo. The note with it: ICR mice with methamphetamine 3 mg/kg i.p., 20 mg/kg i.p., especially 74 dB prepulse, vs DMSO and CBIO controls; listed as RS-D7. An excerpt:
Methamphetamine is a potent psychostimulant that increases the amount of extracellular dopamine in the brain. Methamphetamine (or amphetamine)-induced psychosis model has been well-established and useful for schizophrenia in laboratory animals.

Experiment [5] relates to WT mice. In words: Hot plate test in WT mouse model. To be noted: 55° C. hot plate, 40 mg/kg i.p., vs WT controls, listed as RS-D7. It counts as in vivo.
Text: as §1
For schizophrenia-like negative symptoms in mice, hot plate test was used to assess basic pain and nociception function in mice. […]

Experiment [6] has as its system C57/B16 mice with MK-801 injection. In words: Hot plate test in MK-801 mouse model of schizophrenia. To be noted: mice given MK-801 0.2 mg/kg i.p.; listed as RS-D7. The experiment is classed as in vivo.
Text: as §1, §2

Where [7] appears, read: porcine kidney DAAO, D-alanine substrate, HPPA fluorescence, pH 8.3, 37° C.

The structures appear in SMILES notation. Values joined by “and” are separate entries in the source; they are usually repeats but may differ in a detail not shown here. Equal values may be shown once. “Also recorded” adds a separate entry of the source. Where a name gives a salt, the structure may show the parent alone. Read-outs that look alike come from different tables or passages of the source.

porcine kidney DAAO, sequence (P00371 whole entry): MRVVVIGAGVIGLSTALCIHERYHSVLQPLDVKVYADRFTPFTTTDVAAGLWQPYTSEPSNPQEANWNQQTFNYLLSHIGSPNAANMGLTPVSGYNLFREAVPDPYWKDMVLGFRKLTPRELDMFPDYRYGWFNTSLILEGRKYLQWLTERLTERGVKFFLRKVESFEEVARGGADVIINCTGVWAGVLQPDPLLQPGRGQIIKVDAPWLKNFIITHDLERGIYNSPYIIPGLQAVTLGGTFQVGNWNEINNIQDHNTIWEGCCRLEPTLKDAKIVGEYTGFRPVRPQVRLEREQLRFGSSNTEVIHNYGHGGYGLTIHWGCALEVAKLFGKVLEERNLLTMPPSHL

For `COc1c(C)cnc(C[S+]([O-])c2nc3cc(O)ccc3[nH]2)c1C` (stereo not shown) [5-O-Desmethyl-Omeprazole], the acoustic prepulse inhibition entry in experiment [1] is listed as “alleviates; also recorded: significantly alleviated MK-801 induced PPI deficit”. Besides, the “sucrose uptake in sucrose preference test (anhedonia)” value in experiment [2] is “alleviates; also recorded: rescued the MK-801 induced deficit”. Also, the “prepulse inhibition (sensorimotor gating function)” value with WT mice [3] is “increases; also recorded: induced a greater PPI”. Also, the IC50 on porcine kidney DAAO (setting [7]) was 1.19 µM and 1 to 10 µM. Besides, the “prepulse inhibition (sensorimotor gating function)” value in experiment [4] is given as “alleviates sensorimotor gating deficit; also recorded: induce a greater PPI”. For the same molecule, in the experiment with WT mice [5], the “latency of mouse first reaction (jump) on hot plate” value is reported as “increases nociception function; also recorded: accelerated” and the “numbers of jump on hot plate” value is listed as “increases nociception function; also recorded: increased”. In addition, in experiment [6], the “latency in hot plate test” value was “alleviates; also recorded: alleviated the MK-801-induced alteration” and the “reaction numbers in hot plate test” value is reported as “alleviates; also recorded: alleviated the MK-801-induced alteration”.

On porcine kidney DAAO (setting [7]), `CCN(CC)Cc1cc(Nc2ccnc3cc(Cl)ccc23)ccc1O` [Amodiaquin, reference compound] showed a half-inhibitory concentration (IC50) of 97.6 µM.

For `CNCC[C@H](Oc1cccc2ccccc12)c1cccs1` [Duloxetine, reference compound], at porcine kidney DAAO, the 50% inhibitory concentration (IC50) came out at 5.47 µM.

Regarding `COc1ccc2nc([S@@+]([O-])Cc3ncc(C)c(OC)c3C)[nH]c2c1` [Esomeprazole, reference compound], 106 µM corresponded to half-maximal inhibition against porcine kidney DAAO (setting [7]) (IC50).

On porcine kidney DAAO (setting [7]), `Clc1ccc2c(c1)N=C(N1CCNCC1)c1ccccc1N2` [N-Desmethylclozapine] displayed a half-maximal inhibitory concentration (IC50) of 102 µM.

In the case of `COc1ccc(OC[C@@H]2CNCC[C@H]2c2ccc(F)cc2)cc1O` [PM-BRL 36583A, (−)-trans 4-(4-Fluorophenyl)-3-(3-hydroxy-4-methoxyphenoxymethyl) piperidine], the midpoint of inhibition against porcine kidney DAAO (setting [7]), the IC50, lay at 3.67 µM.

In turn, `COc1cc(OC[C@@H]2CNCC[C@H]2c2ccc(F)cc2)ccc1O` [PM-BRL 36610A, (−)trans 4-(4-fluorophenyl)-3-(4-hydroxy-3-methoxyphenoxymethyl)piperidine-hydrochloride] gave an IC50 against porcine kidney DAAO (setting [7]) of 3.45 µM.

In the case of `O=C([O-])c1ccccc1.[Na+]` [sodium benzoate, reference compound], the half-inhibitory concentration (IC50) at porcine kidney DAAO is around 71.7 µM.

These data come from USRE49340E1, “Use of known compounds as D-amino acid oxidase inhibitors” (National Taiwan University, priority 2014, dated 2022).
